Data set [1] in a line: Cytotoxicity against mouse HT22 cells assessed as cell survival rate at 100 uM after 24 hrs by MTT assay. It counts as toxicity, HT-22. To be noted: read-out: Survival.
Data set [2] relates to HT-22. Description: Neuroprotective activity against glutamate-induced neuronal cell damage in mouse HT22 cells assessed as cell survival rate at 50 uM after 24 hrs by MTT assay (reference value: 12.49 to 43.44%). It counts as functional. Conditions: HT-22, 24 h, read-out: Survival. (Tetrazolium assays rely on reduction of a dye to a coloured formazan, in cell work by metabolically active cells.)

The subject of data set [3] is HT-22. Description: Neuroprotective activity against glutamate-induced neuronal cell damage in mouse HT22 cells assessed as cell survival rate at 100 uM after 24 hrs by MTT assay (reference value: 12.49 to 43.44%). Conditions: HT-22, 24 h, read-out: Survival. The format is functional.
In data set [4] the test system is HT-22. Description: Neuroprotective activity against glutamate-induced neuronal cell damage in mouse HT22 cells assessed as cell survival rate at 10 uM after 24 hrs by MTT assay (reference value: 12.49 to 43.44%). It counts as functional. To be noted: HT-22, 24 h, read-out: Survival.
Data set [5] concerns HT-22. Description: Neuroprotective activity against glutamate-induced neuronal cell damage in mouse HT22 cells assessed as cell survival rate at 1 uM after 24 hrs by MTT assay (reference value: 12.49 to 43.44%). To be noted: HT-22, 24 h, read-out: Survival. The format is functional.
Data set [6] concerns HT-22. Description: Neuroprotective activity against glutamate-induced neuronal cell damage in mouse HT22 cells assessed as increase in cell viability at 1 to 100 uM after 24 hrs by MTT assay relative to glutamate. It counts as functional.
In data set [7] the test system is Mus musculus. Description: Protection against focal cerebral ischemia in ICR mouse model of […] assessed as infarct volume of […] at 100 mg/kg, ip dosed 3 hrs post reperfusion measured 48 hrs post MCAO by TTC staining based assay (reference value: 62.75%). It counts as functional.
In data set [8] the test system is Mus musculus. Description: Protection against focal cerebral ischemia in ICR mouse model of […] assessed as infarct volume of hemisphere at 100 mg/kg, ip dosed 3 hrs post reperfusion measured 48 hrs post MCAO by TTC staining based assay (reference value: 44.98%). It counts as functional.
Data set [9] has as its system Mus musculus. Description: Protection against focal cerebral ischemia in ICR mouse model of […] assessed as infarct volume of striatum at 100 mg/kg, ip dosed 3 hrs post reperfusion measured 48 hrs post MCAO by TTC staining based assay (reference value: 56.18%). It counts as functional.
Data set [10] deals with Mus musculus. Description: Protection against focal cerebral ischemia in ICR mouse model of […] assessed as reduction in infarct volume administered ip 3 hrs post reperfusion measured 48 hrs post MCAO by TTC staining based assay. It counts as functional.
The test system of a further data set is Rattus norvegicus. Description: Protection against focal cerebral ischemia in Wistar rat model of […] assessed as reduction in infarction volume administered ip at 2 hrs post reperfusion measured 3 days post MCAO. It counts as functional.

As for `O=C(OCCCCCOc1ccc(-c2cc(=S)ss2)cc1)c1cccnc1`, in data set [1], the viability at 24 h, 100 µM worked out at 100%. The viability at 50 µM with HT-22 [2] was 93.3%. Also, the viability at 100 µM in the data set with HT-22 [3] was 82.2%. Also, the viability at 10 µM with HT-22 [4] is 92.5%. For the same compound, the viability at 1 µM in the data set on HT-22 [5] worked out at 52.9%.

With `O=C(OCCCCCCCCCOc1ccc(-c2cc(=S)ss2)cc1)c1cccnc1`, the viability at 24 h, 100 µM in [1] was determined as 70.4%. Moreover, the viability at 50 µM with HT-22 [2] is 80.6%. In addition, the viability at 100 µM with HT-22 [3] came out at 70.4%. Also, in the data set on HT-22 [4], the viability at 10 µM came out at 101%. Also, the viability at 1 µM in the data set with HT-22 [5] worked out at 108%.

Regarding `O=C(CNC(=O)c1cccnc1)OCCCCOc1ccc(-c2cc(=S)ss2)cc1`, the viability at 24 h, 100 µM in data set [1] amounted to 100%. The viability at 50 µM with HT-22 [2] was determined as 100%. Besides, the viability at 100 µM with HT-22 [3] was 99%. Further, the viability at 10 µM in the data set with HT-22 [4] worked out at 87.4%. Moreover, in the data set with HT-22 [5], the viability at 1 µM came out at 69.2%.

Consider `O=C(OCCOc1ccc(-c2cc(=S)ss2)cc1)c1cccnc1`, for which, in data set [1], the viability at 24 h, 100 µM turned out to be 100%. In addition, the viability at 50 µM in the data set with HT-22 [2] came out at 91.5%. Further, the viability at 100 µM with HT-22 [3] was determined as 102%. Also, the viability at 10 µM with HT-22 [4] is 80.8%. Also, the viability at 1 µM in the data set on HT-22 [5] came out at 57.9%.

In the case of `O=C(N[C@@H](Cc1ccccc1)C(=O)OCCCCOc1ccc(-c2cc(=S)ss2)cc1)c1cccnc1`, the viability at 24 h, 100 µM in [1] came to 100%. Moreover, the viability at 50 µM with HT-22 [2] is 101%. Moreover, the viability at 100 µM in the data set on HT-22 [3] was determined as 101%. The viability at 10 µM in the data set with HT-22 [4] turned out to be 87.7%. The viability at 1 µM in the data set with HT-22 [5] amounted to 64.7%.

As for `O=C(Oc1ccc(-c2cc(=S)ss2)cc1)c1cccnc1`, the viability at 24 h, 100 µM in data set [1] came to 100%. Also, the viability at 50 µM with HT-22 [2] is 82.4%. For the same compound, the viability at 100 µM with HT-22 [3] is 78.3%. Besides, the viability at 10 µM in the data set on HT-22 [4] worked out at 64.2%. In addition, the viability at 1 µM with HT-22 [5] is 43.3%.

On to `O=C(OCCCCOc1ccc(-c2cc(=S)ss2)cc1)c1cccnc1`, for which the viability at 24 h, 100 µM in data set [1] was found to be 52.9%. The viability at 50 µM with HT-22 [2] turned out to be 87.9%. Also, the viability at 100 µM in the data set on HT-22 [3] stood at 93.5%. Besides, the viability at 10 µM in the data set on HT-22 [4] came out at 94.8%. Besides, the viability at 1 µM in the data set with HT-22 [5] turned out to be 66.9%.

As to `O=C(OCCCCCCOc1ccc(-c2cc(=S)ss2)cc1)c1cccnc1`, the “fold change (FC)” value with HT-22 [6] was determined as 6. The Activity was 38.01% with Mus musculus [7], 25.93% in the data set on Mus musculus [8] and 23.04% in the data set with Mus musculus [9]. Also, the viability at 24 h, 100 µM in [1] turned out to be 100%. In the data set on HT-22 [2], the viability at 50 µM stood at 78.2%. Moreover, in the data set on HT-22 [3], the viability at 100 µM worked out at 71.3%. Moreover, the viability at 10 µM with HT-22 [4] was determined as 83.2%. The MED in the data set on Mus musculus [10] was determined as 100 mg/kg. In addition, in the data set on HT-22 [5], the viability at 1 µM turned out to be 82.6%.

On to `O=C(OCCCCCCCCOc1ccc(-c2cc(=S)ss2)cc1)c1cccnc1`, for which the viability at 24 h, 100 µM in [1] came out at 100%. Moreover, in the data set on HT-22 [2], the viability at 50 µM turned out to be 76.3%. In addition, in the data set with HT-22 [3], the viability at 100 µM turned out to be 82.3%. Besides, in the data set with HT-22 [4], the viability at 10 µM is 78%. The viability at 1 µM in the data set on HT-22 [5] turned out to be 82.5%.

`C[C@H](NC(=O)c1cccnc1)C(=O)OCCCCOc1ccc(-c2cc(=S)ss2)cc1`: the viability at 24 h, 100 µM in data set [1] turned out to be 100%. In addition, the viability at 50 µM in the data set with HT-22 [2] is 77.9%. In the data set with HT-22 [3], the viability at 100 µM was 71.1%. Also, the viability at 10 µM in the data set on HT-22 [4] stood at 75.5%. In addition, in the data set with HT-22 [5], the viability at 1 µM was 68.7%.

As for `CC(C)[C@H](NC(=O)c1cccnc1)C(=O)OCCCCOc1ccc(-c2cc(=S)ss2)cc1`, the viability at 24 h, 100 µM in [1] was found to be 68%. Moreover, the viability at 50 µM with HT-22 [2] was 70.8%. Also, the viability at 100 µM in the data set on HT-22 [3] was 68.1%. Besides, in the data set on HT-22 [4], the viability at 10 µM was determined as 72.4%. Moreover, the viability at 1 µM in the data set on HT-22 [5] amounted to 73.3%.

`O=C(OCCCOc1ccc(-c2cc(=S)ss2)cc1)c1cccnc1`: the viability at 24 h, 100 µM in [1] was 100%. Moreover, in the data set with HT-22 [2], the viability at 50 µM came out at 93.4%. Moreover, the viability at 100 µM in the data set on HT-22 [3] worked out at 89.8%. For the same compound, the viability at 10 µM with HT-22 [4] was found to be 87.2%. The viability at 1 µM in the data set with HT-22 [5] amounted to 33.7%.

With `Oc1ccc(-c2cc(=S)ss2)cc1`, the viability at 50 µM in the data set with HT-22 [2] was 104%. Besides, the viability at 100 µM with HT-22 [3] was found to be 76.4%. The viability at 10 µM with HT-22 [4] was found to be 52.2%. Also, in the data set on HT-22 [5], the viability at 1 µM came to 33.4%.

In the case of `NC(=O)c1cccnc1` [NIACINAMIDE], the MED with Rattus norvegicus came out at 500 mg/kg.

On to `O=C(O)c1cccnc1` [NIACIN], for which the viability at 50 µM in the data set with HT-22 [2] was 63.8%. For the same compound, the viability at 100 µM in the data set with HT-22 [3] is 75.3%. In addition, the viability at 10 µM with HT-22 [4] was 58.9%. For the same compound, in the data set on HT-22 [5], the viability at 1 µM turned out to be 56.2%.

Values taken from ChEMBL document CHEMBL3860062, “Synthesis and biological evaluation of novel hydrogen sulfide releasing nicotinic acid derivatives” (Bioorg Med Chem, 2016).
